Data taken from PubChem BioAssay AID1963833 (Molecular Pharmacology Branch, DTP, NCI, 2024).

Tested on: 883617-216-R-J1-PDC complex spheroid viability
Assay: Anticancer human tumor 883617-216-R-J1-PDC patient-derived bladder carcinoma cell line growth inhibition [POLQ]
Conditions: for IC50: curve of first compound; for viability, T/C: stronger effect = lower value
In short: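 Three-cell-type spheroids modelling solid tumor plus stroma served as the readout system; POL inhibitors were tested individually and in combination, concentration ranges set by clinical Cmax where known.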

[1] = second compound 0.0316 µM, first compound 0.0316 µM
[2] = second compound 0.0316 µM, first compound 0.1 µM
[3] = second compound 0.0316 µM, first compound 0.316 µM
[4] = second compound 0.0316 µM, first compound 1 µM
[5] = second compound 0.0316 µM, first compound 3.16 µM
[6] = second compound 0.0316 µM, first compound 10 µM
[7] = second compound 0.1 µM, first compound 0.0316 µM
[8] = second compound 0.1 µM, first compound 0.1 µM
[9] = second compound 0.1 µM, first compound 0.316 µM
[10] = second compound 0.1 µM, first compound 1 µM
[11] = second compound 0.1 µM, first compound 3.16 µM
[12] = second compound 0.1 µM, first compound 10 µM
[13] = second compound 0.316 µM, first compound 0.0316 µM
[14] = second compound 0.316 µM, first compound 0.1 µM
[15] = second compound 0.316 µM, first compound 0.316 µM
[16] = second compound 0.316 µM, first compound 1 µM
[17] = second compound 0.316 µM, first compound 3.16 µM
[18] = second compound 0.316 µM, first compound 10 µM
[19] = second compound 1 µM, first compound 0.0316 µM
[20] = second compound 1 µM, first compound 0.1 µM
[21] = second compound 1 µM, first compound 0.316 µM
[22] = second compound 1 µM, first compound 1 µM
[23] = second compound 1 µM, first compound 3.16 µM
[24] = second compound 1 µM, first compound 10 µM
[25] = second compound 3.16 µM, first compound 0.0316 µM
[26] = second compound 3.16 µM, first compound 0.1 µM
[27] = second compound 3.16 µM, first compound 0.316 µM
[28] = second compound 3.16 µM, first compound 1 µM
[29] = second compound 3.16 µM, first compound 3.16 µM
[30] = second compound 3.16 µM, first compound 10 µM
[31] = second compound 10 µM, first compound 0.0316 µM
[32] = second compound 10 µM, first compound 0.1 µM
[33] = second compound 10 µM, first compound 0.316 µM
[34] = second compound 10 µM, first compound 1 µM
[35] = second compound 10 µM, first compound 3.16 µM
[36] = second compound 10 µM, first compound 10 µM
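Also: spheroids exposed to compounds for seven days before readout.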
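For viability, T/C in this document: 100% = DMSO vehicle control viability.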

## O=c1[nH]cc(F)c(=O)[nH]1 + Nc1ccc(C#CCN(C(=O)Cc2ncc(C(F)(F)F)cc2C(F)(F)F)c2ccc(F)cc2)nn1
Second compound 0.0316 µM
  IC50: > 10 µM
Second compound 0.1 µM
  IC50: > 10 µM
Second compound 0.316 µM
  IC50: > 10 µM
Second compound 1 µM
  IC50: > 10 µM
Second compound 3.16 µM
  IC50: > 10 µM
Second compound 10 µM
  IC50: > 10 µM
[1]
  viability, T/C: 112%
[2]
  viability, T/C: 105%
[3]
  viability, T/C: 93.2%
[4]
  viability, T/C: 87.1%
[5]
  viability, T/C: 94.2%
[6]
  viability, T/C: 70.3%
[7]
  viability, T/C: 102%
[8]
  viability, T/C: 108%
[9]
  viability, T/C: 101%
[10]
  viability, T/C: 105%
[11]
  viability, T/C: 93.3%
[12]
  viability, T/C: 81.2%
[13]
  viability, T/C: 103%
[14]
  viability, T/C: 106%
[15]
  viability, T/C: 107%
[16]
  viability, T/C: 92.7%
[17]
  viability, T/C: 94.7%
[18]
  viability, T/C: 82.4%
[19]
  viability, T/C: 93.5%
[20]
  viability, T/C: 115%
[21]
  viability, T/C: 99.2%
[22]
  viability, T/C: 110%
[23]
  viability, T/C: 105%
[24]
  viability, T/C: 80.6%
[25]
  viability, T/C: 100%
[26]
  viability, T/C: 107%
[27]
  viability, T/C: 101%
[28]
  viability, T/C: 110%
[29]
  viability, T/C: 103%
[30]
  viability, T/C: 82.2%
[31]
  viability, T/C: 128%
[32]
  viability, T/C: 112%
[33]
  viability, T/C: 120%
[34]
  viability, T/C: 108%
[35]
  viability, T/C: 104%
[36]
  viability, T/C: 94.1%

## Nc1ccn(C2OC(CO)C(O)C2(F)F)c(=O)n1 (centres undefined) + COC1C(OC(N)=O)C(O)C(Oc2ccc3c(O)c(NC(=O)c4ccc(O)c(CC=C(C)C)c4)c(=O)oc3c2C)OC1(C)C
Second compound 0.0316 µM
  IC50: < 0.0316 µM
Second compound 0.1 µM
  IC50: < 0.0316 µM
Second compound 0.316 µM
  IC50: < 0.0316 µM
Second compound 1 µM
  IC50: < 0.0316 µM
Second compound 3.16 µM
  IC50: < 0.0316 µM
Second compound 10 µM
  IC50: < 0.0316 µM
[1]
  viability, T/C: 25.9%
[2]
  viability, T/C: 30%
[3]
  viability, T/C: 35.5%
[4]
  viability, T/C: 36.7%
[5]
  viability, T/C: 28.9%
[6]
  viability, T/C: 36.5%
[7]
  viability, T/C: 31%
[8]
  viability, T/C: 34.8%
[9]
  viability, T/C: 47%
[10]
  viability, T/C: 39%
[11]
  viability, T/C: 38.2%
[12]
  viability, T/C: 31.2%
[13]
  viability, T/C: 25.5%
[14]
  viability, T/C: 35.1%
[15]
  viability, T/C: 36.9%
[16]
  viability, T/C: 34.3%
[17]
  viability, T/C: 40.6%
[18]
  viability, T/C: 32.1%
[19]
  viability, T/C: 28.8%
[20]
  viability, T/C: 37.7%
[21]
  viability, T/C: 42.1%
[22]
  viability, T/C: 41.7%
[23]
  viability, T/C: 31.1%
[24]
  viability, T/C: 26.9%
[25]
  viability, T/C: 30.6%
[26]
  viability, T/C: 32.6%
[27]
  viability, T/C: 39.9%
[28]
  viability, T/C: 33.5%
[29]
  viability, T/C: 35.2%
[30]
  viability, T/C: 28%
[31]
  viability, T/C: 29.3%
[32]
  viability, T/C: 31.3%
[33]
  viability, T/C: 34.9%
[34]
  viability, T/C: 35%
[35]
  viability, T/C: 32.3%
[36]
  viability, T/C: 32.1%
